Results on twelve molecules are retold here after ChEMBL document CHEMBL5108009, “Positron Emission Tomography (PET) Imaging Tracers for Serotonin Receptors” (J Med Chem, 2022).

As usually defined, the Kd is the constant that tells how readily two partners part at equilibrium. The term Ki denotes the dissociation constant of the complex between target and ligand, obtained from inhibition or displacement.

A short description of data set [1]: Ratio of drug distribution in cynomolgus monkey hippocampus to cerebellum measured at 30 mins postinjection. The class given is ADME, organism-based, Macaca fascicularis. Conditions: in vivo, 0.5 h.
A short description of data set [2]: Drug metabolism in plasma (unknown origin) assessed as parent compound remaining measured at 55 mins relative to control. The class given is ADME. Conditions: read-out: Stability.
Data set [3] is described as follows: Drug uptake in cynomolgus monkey in brain administered IV measured at 7.5 mins relative to control. The class given is ADME, tissue-based, Macaca fascicularis. Conditions: in vivo, 0.125 h.
The nature of data set [4]: Drug uptake in macaque brain at 3680 to 4035 Ci/mmol, iv measured as percentage of injected dose by PET imaging at 7.5 mins relative to control. The class given is ADME, organism-based. Conditions: macaca, in vivo, 0.125 h, dose 3680-4035 Ci/mmol.
Data set [5] is described as follows: Ratio of drug uptake in macaque brain striatopallidal complex to cerebellum at 3680 to 4035 Ci/mmol, iv by PET imaging upto 100 mins relative to control. The class given is ADME, organism-based. Conditions: macaca, in vivo, 1.667 h, dose 3680-4035 Ci/mmol.
Data set [6] is described as follows: Ratio of drug uptake in macaque brain frontal cortex to cerebellum at 3680 to 4035 Ci/mmol, iv by PET imaging upto 100 mins relative to control. The class given is ADME, organism-based. Conditions: macaca, in vivo, 1.667 h, dose 3680-4035 Ci/mmol.
Data set [7] deals with T1, 5-hydroxytryptamine receptor 1B (Cavia porcellus, UniProt O08892). As to the kind of experiment: Binding affinity to guinea pig 5-HT1B receptor assessed as dissociation constant by autoradiographic analysis.
A short description of data set [8]: Ratio of drug uptake in macaque brain thalamus to cerebellum at 3680 to 4035 Ci/mmol, iv by PET imaging upto 100 mins relative to control. Type of data set: ADME, organism-based. Conditions: macaca, in vivo, 1.667 h, dose 3680-4035 Ci/mmol.
Data set [9] concerns the target T1, 5-hydroxytryptamine receptor 1B. As to the kind of experiment: Binding affinity to guinea pig 5-HT1B receptor assessed as inhibition constant by autoradiographic analysis.
Data set [10] in a line: Ratio of drug uptake in macaque brain occipital cortex to cerebellum at 3680 to 4035 Ci/mmol, iv by PET imaging upto 100 mins relative to control. Type of data set: ADME, organism-based. Conditions: macaca, in vivo, 1.667 h, dose 3680-4035 Ci/mmol.
A short description of data set [11]: Ratio of drug uptake in baboon insular cortex to cerebellum at 175 mins. Conditions: in vivo, 2.917 h. Type of data set: ADME, tissue-based, Papio.
Data set [12] in a line: Ratio of drug uptake in baboon anterior cingulate cortex to cerebellum at 175 mins. The class given is ADME, tissue-based, Papio. Conditions: in vivo, 2.917 h.
A short description of data set [13]: Ratio of drug uptake in baboon hippocampus to cerebellum at 175 mins. Conditions: in vivo, 2.917 h. The class given is ADME, tissue-based, Papio.
The target of data set [14] is T2, 5-hydroxytryptamine receptor 1A (Rattus norvegicus, UniProt P19327).
T2 sequence (P19327 whole entry): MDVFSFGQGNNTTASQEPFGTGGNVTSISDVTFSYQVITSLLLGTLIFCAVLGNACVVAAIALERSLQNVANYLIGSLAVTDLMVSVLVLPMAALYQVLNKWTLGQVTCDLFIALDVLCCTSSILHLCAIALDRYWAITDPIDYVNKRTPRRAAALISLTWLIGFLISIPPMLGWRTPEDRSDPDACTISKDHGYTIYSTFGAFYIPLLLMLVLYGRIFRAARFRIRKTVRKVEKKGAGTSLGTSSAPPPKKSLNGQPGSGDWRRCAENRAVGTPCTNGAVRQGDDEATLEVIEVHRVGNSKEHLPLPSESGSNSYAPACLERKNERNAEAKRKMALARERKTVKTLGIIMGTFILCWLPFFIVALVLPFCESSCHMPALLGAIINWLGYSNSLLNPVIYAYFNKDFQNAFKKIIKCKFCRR
The experiment in a line: Displacement of [3H]-8-OH-DPAT from Sprague-Dawley rat hippocampal membrane 5HT1A receptor incubated for 10 mins by liquid scintillation analysis. The class given is cell membranes, Hippocampus. (In general: Loss of bound radioactivity is the signal in a displacement assay; it reports binding, not function.)

Data set [15] is described as follows: Drug uptake ratio in Sprague-Dawley rat brain cingulate cortex to cerebellum measured after 20 to 30 mins by camera ClearPET LYSO/LuYAP Phoswich-scanner analysis. The class given is ADME, tissue-based. Conditions: time 20-30 min.
Data set [16] can be described thus: Drug uptake ratio in cat brain dorsal raphe nucleus to cerebellum measured after 20 to 30 mins by camera ClearPET LYSO/LuYAP Phoswich-scanner analysis. Type of data set: ADME, tissue-based, Felis catus. Conditions: time 20-30 min.
The target in data set [17] is T3, 5-hydroxytryptamine receptor 1A (Homo sapiens, UniProt P08908).
T3 sequence (P08908 whole entry): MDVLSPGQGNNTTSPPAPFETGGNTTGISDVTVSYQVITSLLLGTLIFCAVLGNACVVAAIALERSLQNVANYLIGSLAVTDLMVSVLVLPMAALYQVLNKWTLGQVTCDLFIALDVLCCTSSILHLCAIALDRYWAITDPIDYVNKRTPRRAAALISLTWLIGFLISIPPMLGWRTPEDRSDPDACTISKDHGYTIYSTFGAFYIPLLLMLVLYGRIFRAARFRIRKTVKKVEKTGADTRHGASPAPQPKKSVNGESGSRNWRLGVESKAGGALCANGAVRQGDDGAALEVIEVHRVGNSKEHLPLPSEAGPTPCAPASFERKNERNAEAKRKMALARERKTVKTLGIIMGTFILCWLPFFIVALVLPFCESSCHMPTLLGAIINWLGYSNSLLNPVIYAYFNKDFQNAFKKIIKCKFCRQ

Another data set concerns the target D(2) dopamine receptor (Rattus norvegicus, UniProt P61169). The experiment in a line: Binding affinity to rat brain homogenate D2 receptor assessed as dissociation constant. The class given is tissue-based.
Data set [18] concerns the target T2, 5-hydroxytryptamine receptor 1A. As to the kind of experiment: Binding affinity to rat brain homogenate 5-HT1A receptor assessed as dissociation constant. Type of data set: tissue-based.
The target in data set [19] is Sodium-dependent serotonin transporter (Rattus norvegicus, UniProt P31652). As to the kind of experiment: Binding affinity to rat brain homogenate SERT receptor assessed as dissociation constant. Type of data set: tissue-based.
For data set [20] the following is noted: plasma, 10 min.
Description: Drug metabolism in plasma (unknown origin) assessed as parent compound remaining by measuring total radioactivity at 10 mins by HPLC analysis
Data set [21] is described as follows: Drug uptake in rat brain. Conditions: in vivo. Type of data set: ADME, tissue-based.
Data set [22] can be described thus: Drug uptake in monkey brain measured after 7 mins postinjection. The class given is ADME, organism-based, Macaca mulatta. Conditions: rhesus monkey, in vivo.
A short description of data set [23]: Drug uptake in plasma (unknown origin) as parent compound by measuring radioactivity at 30 mins postinjection relative to control. Conditions: in vivo, 0.5 h. The class given is ADME, organism-based.
Data set [24] can be described thus: Ratio of drug distribution in rat hippocampus to cerebellum at 30 mins postinjection. Conditions: in vivo, 0.5 h. The class given is ADME, organism-based.
The target of data set [25] is T3, 5-hydroxytryptamine receptor 1A. The source holds these as a separate data set.
The target of data set [26] is T4, 5-hydroxytryptamine receptor 2B (Homo sapiens, UniProt P41595). The experiment in a line: Binding affinity to 5-HT2B receptor (unknown origin) assessed as inhibition constant.
Data set [27] deals with T5, 5-hydroxytryptamine receptor 1D (Homo sapiens, UniProt P28221). The experiment in a line: Binding affinity to 5-HT1D receptor (unknown origin) assessed as inhibition constant.
In data set [28] the target is T6, Alpha-1A adrenergic receptor (Homo sapiens, UniProt P35348).
T6 sequence (P35348 whole entry): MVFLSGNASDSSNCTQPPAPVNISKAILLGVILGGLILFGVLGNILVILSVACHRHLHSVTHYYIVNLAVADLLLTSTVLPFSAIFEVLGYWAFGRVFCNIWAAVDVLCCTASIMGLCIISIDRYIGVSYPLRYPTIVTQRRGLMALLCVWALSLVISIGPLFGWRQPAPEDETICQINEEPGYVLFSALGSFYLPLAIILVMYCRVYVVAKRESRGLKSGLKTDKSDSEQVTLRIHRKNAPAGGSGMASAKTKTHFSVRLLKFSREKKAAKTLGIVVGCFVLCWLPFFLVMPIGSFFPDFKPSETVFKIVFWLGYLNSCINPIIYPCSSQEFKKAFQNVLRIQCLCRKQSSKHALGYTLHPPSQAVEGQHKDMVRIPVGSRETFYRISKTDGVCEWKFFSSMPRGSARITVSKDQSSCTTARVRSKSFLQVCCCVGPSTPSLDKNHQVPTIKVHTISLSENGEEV
The experiment in a line: Binding affinity to human alpha 1A adrenergic receptor expressed in CHO cells assessed as inhibition constant. Type of data set: cell-based.

The target of another data set is D(4) dopamine receptor (Homo sapiens, UniProt P21917). The experiment in a line: Binding affinity to human D4 receptor expressed in CHO cells assessed as inhibition constant. Type of data set: cell-based.
In data set [29] the target is T5, 5-hydroxytryptamine receptor 1D. The experiment in a line: Binding affinity to human 5-HT1D receptor expressed in CHO cells assessed as inhibition constant. Type of data set: cell-based.
For data set [30], the target named is T3, 5-hydroxytryptamine receptor 1A. As to the kind of experiment: Binding affinity to human 5-HT1A receptor expressed in CHO cells assessed as inhibition constant. The class given is cell-based.
In data set [31] the target is T4, 5-hydroxytryptamine receptor 2B. As to the kind of experiment: Binding affinity to human 5-HT2B receptor expressed in CHO cells assessed as inhibition constant. The class given is cell-based.
Data set [32] is described as follows: Ratio of drug uptake in cynomolgus monkey cingulate gyrus to cerebellum measured at 87.5 mins postinjection. Type of data set: ADME, organism-based, Macaca fascicularis. Conditions: in vivo, 1.458 h.

T4 sequence (P41595 whole entry): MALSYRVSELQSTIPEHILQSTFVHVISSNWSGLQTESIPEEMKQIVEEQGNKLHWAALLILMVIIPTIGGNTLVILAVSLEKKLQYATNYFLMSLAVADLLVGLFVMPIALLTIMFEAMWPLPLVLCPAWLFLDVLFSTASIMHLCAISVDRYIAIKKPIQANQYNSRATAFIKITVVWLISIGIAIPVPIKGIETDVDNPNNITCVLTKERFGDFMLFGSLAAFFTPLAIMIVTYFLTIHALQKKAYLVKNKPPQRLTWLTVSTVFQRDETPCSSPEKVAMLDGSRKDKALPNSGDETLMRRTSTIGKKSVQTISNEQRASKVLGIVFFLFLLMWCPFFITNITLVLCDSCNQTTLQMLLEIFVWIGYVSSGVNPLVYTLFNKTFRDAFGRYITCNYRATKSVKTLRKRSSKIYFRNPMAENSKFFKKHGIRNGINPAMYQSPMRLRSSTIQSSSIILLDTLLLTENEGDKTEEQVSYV
T5 sequence (P28221 whole entry): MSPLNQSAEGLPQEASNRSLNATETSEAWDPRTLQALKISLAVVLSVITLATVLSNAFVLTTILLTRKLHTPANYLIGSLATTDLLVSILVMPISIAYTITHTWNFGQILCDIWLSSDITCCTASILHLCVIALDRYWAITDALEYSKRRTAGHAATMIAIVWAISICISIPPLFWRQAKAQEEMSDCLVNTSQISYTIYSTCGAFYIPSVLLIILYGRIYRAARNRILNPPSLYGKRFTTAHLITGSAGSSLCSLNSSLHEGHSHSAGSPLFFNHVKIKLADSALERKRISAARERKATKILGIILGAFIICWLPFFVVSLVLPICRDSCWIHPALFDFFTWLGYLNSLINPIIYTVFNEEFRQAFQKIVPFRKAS
T1 sequence (O08892 whole entry): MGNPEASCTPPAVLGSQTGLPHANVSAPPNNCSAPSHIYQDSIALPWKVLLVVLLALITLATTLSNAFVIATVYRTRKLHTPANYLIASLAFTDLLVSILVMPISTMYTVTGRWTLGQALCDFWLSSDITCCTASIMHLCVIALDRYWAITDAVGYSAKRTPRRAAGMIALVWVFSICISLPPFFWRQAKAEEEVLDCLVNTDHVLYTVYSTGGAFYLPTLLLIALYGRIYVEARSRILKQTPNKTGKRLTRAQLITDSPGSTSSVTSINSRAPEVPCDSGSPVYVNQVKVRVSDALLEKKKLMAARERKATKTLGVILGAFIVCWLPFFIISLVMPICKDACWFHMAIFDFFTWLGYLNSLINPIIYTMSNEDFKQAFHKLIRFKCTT
Sequence of D(4) dopamine receptor (P21917 whole entry): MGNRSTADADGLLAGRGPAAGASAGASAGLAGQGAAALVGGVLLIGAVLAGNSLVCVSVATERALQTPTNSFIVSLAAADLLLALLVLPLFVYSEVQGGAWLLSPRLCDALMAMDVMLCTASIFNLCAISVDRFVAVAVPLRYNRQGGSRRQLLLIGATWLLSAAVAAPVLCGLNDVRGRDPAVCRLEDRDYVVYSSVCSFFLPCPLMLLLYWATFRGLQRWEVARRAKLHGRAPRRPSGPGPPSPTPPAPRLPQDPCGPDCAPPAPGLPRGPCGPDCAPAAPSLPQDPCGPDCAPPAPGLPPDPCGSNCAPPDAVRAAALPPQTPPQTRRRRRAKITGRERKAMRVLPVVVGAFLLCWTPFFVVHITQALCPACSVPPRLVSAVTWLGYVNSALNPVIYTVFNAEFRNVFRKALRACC
Sequence of D(2) dopamine receptor (P61169 whole entry): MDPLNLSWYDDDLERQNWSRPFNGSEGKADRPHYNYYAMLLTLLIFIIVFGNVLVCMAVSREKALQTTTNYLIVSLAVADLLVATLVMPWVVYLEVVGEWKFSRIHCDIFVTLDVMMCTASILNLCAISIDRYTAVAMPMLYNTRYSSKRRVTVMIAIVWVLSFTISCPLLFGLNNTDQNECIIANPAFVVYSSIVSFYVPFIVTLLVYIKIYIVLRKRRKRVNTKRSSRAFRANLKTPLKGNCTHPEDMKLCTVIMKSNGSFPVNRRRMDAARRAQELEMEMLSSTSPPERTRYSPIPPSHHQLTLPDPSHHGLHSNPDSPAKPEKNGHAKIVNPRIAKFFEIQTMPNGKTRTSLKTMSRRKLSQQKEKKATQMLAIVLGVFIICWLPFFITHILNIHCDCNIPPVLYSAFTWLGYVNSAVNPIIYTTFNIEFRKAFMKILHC
Sequence of Sodium-dependent serotonin transporter (P31652 whole entry): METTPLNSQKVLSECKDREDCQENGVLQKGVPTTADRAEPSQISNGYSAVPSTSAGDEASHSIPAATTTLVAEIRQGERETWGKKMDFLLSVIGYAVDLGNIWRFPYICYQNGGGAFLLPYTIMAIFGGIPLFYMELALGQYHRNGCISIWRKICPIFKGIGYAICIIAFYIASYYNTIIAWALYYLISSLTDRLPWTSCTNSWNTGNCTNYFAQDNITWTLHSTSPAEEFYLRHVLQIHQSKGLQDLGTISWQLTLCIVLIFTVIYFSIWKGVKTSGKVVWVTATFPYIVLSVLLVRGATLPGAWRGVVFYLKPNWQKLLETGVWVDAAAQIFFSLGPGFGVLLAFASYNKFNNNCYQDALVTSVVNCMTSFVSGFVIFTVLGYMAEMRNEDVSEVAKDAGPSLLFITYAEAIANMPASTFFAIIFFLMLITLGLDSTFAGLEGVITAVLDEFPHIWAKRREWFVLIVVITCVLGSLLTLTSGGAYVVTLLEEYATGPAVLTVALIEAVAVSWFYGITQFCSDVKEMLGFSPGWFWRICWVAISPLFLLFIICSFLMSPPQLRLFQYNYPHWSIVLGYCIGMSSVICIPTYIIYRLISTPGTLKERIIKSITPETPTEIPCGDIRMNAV

Take `COc1ccccc1N1CCN(CCN(C(=O)C2CCCCC2)c2cccc([18F])n2)CC1`: the Ratio in data set [1] came out at 1.4. Also, in [2], the remaining at 55 min is 20%. This molecule showed a Drug uptake in [3] of 4.33%.

Regarding `Cc1ccc(N2CCN([11CH3])CC2)c2oc(C(=O)Nc3ccc(N4CCOCC4)cc3)cc(=O)c12`, the Drug uptake in [4] worked out at 3%. Moreover, the Ratio is 4.1 in data set [5], 2.6 in [6], 2.6 in [8] and 4.2 in data set [10]. Moreover, the Kd in data set [7] was 0.4 nM. In addition, in data set [9], the Ki was determined as 0.01 nM.

As for `Cn1c(=O)cnn(CCCCN2CCN(c3ccccc3OCC[18F])CC2)c1=O`, the Ratio in [11] was 1.8; in data set [12], 2.3; in data set [13], 4.

`Cc1ccc2c(c1O)-c1cccc3c1C(C2)N(C)CC3` (stereo unspecified) came in with a Ki in data set [14] of 0.45 nM.

For `Cc1cnc(CNCC2(F)CCN(C(=O)c3ccc([18F])c(Cl)c3)CC2)nc1`, the figures for the Ratio in [15] and in data set [16] were 1.6 and 1.5, respectively. The same molecule had a Ki in data set [17] of 2.24 nM.

As to `COc1ccccc1N1CCN(CCn2cc(COCC(COc3ccc([Si]([18F])(C(C)(C)C)C(C)(C)C)cc3)OCc3cn(CCN4CCN(c5ccccc5OC)CC4)nn3)nn2)CC1` (stereo unspecified), the Ki on D(2) dopamine receptor was determined as 2.2 nM; in data set [18], 0.099 nM; in [19], 9.8 nM.

On to `O=[11C](C1CCCCC1)N(CCN1CCN(c2ccccc2O)CC1)c1ccccn1`, for which the Stability in data set [20] is given as less than 10%.

Regarding `[11CH3]Oc1ccc2cccc(N3CCN(CCNC(=O)c4ccc(F)cc4)CC3)c2c1`, the SUV in data set [21] is recorded as 2; in data set [22] it was 7. For the same molecule, in [17], the affinity corresponds to a Ki of 0.98 nM.

Consider `COc1ccccc1N1CCN(CCN(C(=O)c2ccc([18F])cc2)c2ccccn2)CC1`, for which, in [23], the Drug uptake amounted to 20%. The Ratio in data set [24] is reported as 5.6. Further, in data set [25], the Kd was found to be 0.34 nM.

On to `COc1ccccc1N1CCN(CC[C@@H](C(=O)N2CCCCCC2)c2ccccc2)CC1`, for which the Ki was found to be 7.2 nM in [26], 0.6 nM in [17] and 9.5 nM in data set [27].

As for `O=C(NCCN1CCN(c2cccc3c2OCCO3)CC1)c1ccc(F)cc1`, the Ki in [28] was 40 nM; at D(4) dopamine receptor, 4 nM; in data set [29], 25 nM; in data set [30] it was 0.1 nM; in data set [31], 46 nM.

`[11CH3]Oc1ccccc1N1CCN(CC[C@@H](C(=O)N2CCCCCC2)c2ccccc2)CC1`: the Ratio in data set [32] came out at 6.4.
